Data: paper PMC4054954 (Brain research, 2011)
Entries after “also recorded” stand apart in the source; their conditions may differ.

Test system: HT-22 cells
Experiment: HT-22 cell-based glutamate cytoprotection assay
Design: species or system murine
Conditions: for cytoprotection / neuroprotection of HT-22 cells (in words): glutamate-induced oxidative stress cell death

Row | Structure (SMILES) | EC50 (Mus musculus, HT-22, read-out: cytoprotective EC50) | cytoprotection / neuroprotection of HT-22 cells (in words)
1 | CC(C)=CCN1CC[C@]2(C)c3cc(O)ccc3C[C@H]1[C@H]2C [(+)-pentazocine] | > 4 µM | not to be neuroprotective; also recorded: not cytoprotective
2 | O=C(OCCN1CCOCC1)C1(c2ccccc2)CCCCC1 [PRE-084] |  | not cytoprotective
3 | O=C(CCCN1CCC(O)(c2ccc(Cl)cc2)CC1)c1ccc(F)cc1 [haloperidol] |  | potent neuroprotective agent; also recorded: protective
